73 compounds from PubChem BioAssay AID179 (DTP/NCI, 2004) can be followed below.

In the test the test system is CEM cells HIV-1 protection, formazan growth assay. Nature of the test: NCI AIDS Antiviral Assay. As to conditions: for IC50: measured here: growth of uninfected CEM cells. In outline:
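Human CEM cells, uninfected and HIV-1-infected, received five drug concentrations, and growth was read by soluble formazan assay. Compounds giving at least 50% protection were retested; reproducible 100% protection defined confirmed active.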

The EC50 is the concentration at which the effect is half-maximal. By IC50 is commonly meant the concentration that gives 50% inhibition.

Calls of active or inactive are those of the source.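 The calls were made as follows: active = compounds giving half or more protection of infected cells from virus-caused growth loss, again on retest; inactive = the rest.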 Where a SMILES comes first, the peptide text is derived from it. The star is where a group is joined. Boc = CC(C)(C)OC(=O)*; OBn = c1ccc(CO*)cc1

For the compound `COC(=O)C1=C(CO)C2C=CC1C2` (configuration not stated), the result was inactive.

Consider `CCOC(=O)CO/N=C\C1=CC(=O)C2CC1C2(C)C` (configuration not stated), for which the EC50 is greater than 200 µM and the IC50 is greater than 200 µM.

With `CN1C(=O)C(Br)SC1=S` (configuration not stated), the EC50 is greater than 31.6 µM and the IC50 was greater than 31.6 µM.

For `CN(C)c1ccc(C=C(C(=O)c2ccccc2)C(=O)c2ccccc2)cc1`, the EC50 is greater than 10.7 µM and the IC50 was greater than 10.7 µM.

Consider `CC(=O)ONC(=O)CSc1nn2cc(-c3ccccc3)nc2s1`, for which the EC50 is 186 µM and the IC50 is greater than 200 µM.

In the case of `CCC[CH2][Sn]1([CH2]CCC)[O]CC(CN2CCCCC2)[O]1` (configuration not stated), the EC50 is greater than 9.33 µM and the IC50 came to 0.0646 µM.

For `CC(C)C1CC[C@@H](C)C[C@@]1(O)CC(N)=O` (some centres not stated), the outcome was inactive.

As to `C=C1CC[C@]2(C)C3CC[C@]4(C)C(C(C)CCC(=O)OC)CCC4[C@@H]3CC[C@@H]2C1` (some centres not stated), the EC50 is greater than 87.1 µM and the IC50 was greater than 87.1 µM.

As to `CC(C)CCC[C@@H](C)C1CCC2[C@@H]3CC(OS(=O)(=O)O)C4C[C@@H](OC5OC(CO)C(O)C(O)C5O)CC[C@]4(C)C3CC[C@@]21C` (some centres not stated), the EC50 is greater than 37.2 µM and the IC50 turned out to be 6.03 µM.

`N#Cc1c(N)[nH]c(=S)c(C#N)c1-c1ccccc1`: the EC50 was greater than 200 µM and the IC50 amounted to 135 µM.

Turning to `COC(=O)CC(NC(=O)OCc1ccccc1)C(C(C)=O)C(=O)OCc1ccccc1` (configuration not stated), the EC50 was greater than 75.9 µM and the IC50 was greater than 75.9 µM.

For `N=c1c2ccccc2nc2oc3cc([N+](=O)[O-])ccc3n12`, the EC50 is greater than 195 µM and the IC50 worked out at 138 µM.

Regarding `COc1cc([N+](=O)[O-])c(OC)c2c(Nc3ccc(S(=O)(=O)O)c4cc(S(=O)(=O)O)cc(S(=O)(=O)O)c34)cc(C)nc12`, the EC50 was greater than 200 µM and the IC50 is greater than 200 µM.

Consider `Cc1cc(=O)n2c(n1)Nc1ccc(Cl)cc1C2`, for which the EC50 is greater than 52.5 µM and the IC50 was greater than 52.5 µM.

Consider `C=CCNc1nc(C#N)c(N)s1`, for which the EC50 is greater than 200 µM and the IC50 was greater than 200 µM.

As to `O=C(O)c1cc2c(cc1CC(Cc1ccc3c(c1)CCCC3)C(=O)O)CCCC2` (configuration not stated), the EC50 was greater than 200 µM and the IC50 came to 51.3 µM.

Regarding `O=S1(=O)c2ccccc2C(O)(c2ccccc2)c2cc3ccccc3n21` (configuration not stated), the EC50 is greater than 27.5 µM and the IC50 is greater than 27.5 µM.

Turning to `S=c1nc(COc2ccc(Cl)cc2)[nH][nH]1`, the EC50 was greater than 1020 µM and the IC50 is greater than 1020 µM.

`O=C(CCCN1CCC2(CC1)NC(=O)c1ccccc1O2)c1ccc(F)cc1`: the EC50 was greater than 200 µM and the IC50 was greater than 200 µM.

For `O=[N+]([O-])c1cc(C(F)(F)F)cc([N+](=O)[O-])c1CCl`, the outcome was inactive.

On to `S=c1c2ccccc2c(=S)n(-c2ccccc2)n1-c1ccccc1`, for which the EC50 was greater than 200 µM and the IC50 was greater than 200 µM.

In the case of `COc1cc(/C=N/NC(=O)CC(=O)N(C(=O)c2ccc(Cl)cc2)c2ccc(C)cc2)ccc1O`, the EC50 was greater than 195 µM and the IC50 is greater than 195 µM.

As for `Oc1ccccc1-c1n[nH]c(-c2ccccc2O)n1`, the EC50 was greater than 200 µM and the IC50 is 1.38 µM.

As for `CN(C)CCNC(=O)c1cccc(C(C)(C)C)c1[N+](=O)[O-]`, the EC50 is greater than 200 µM and the IC50 came out at 135 µM.

For `Cn1c([C@H](C#N)C(=O)c2cc(O)ccc2[N+](=O)[O-])nc2ccccc21`, the EC50 was greater than 200 µM and the IC50 is greater than 200 µM.

As for `O=c1ccn2n1Cc1ccccc1C2`, the EC50 was greater than 200 µM and the IC50 is greater than 200 µM.

As to `COc1cc2c(OC)c(-c3c(C)cc4c(C(C)C)c(OC)c(OC)cc4c3OC)c(C)cc2c(C(C)C)c1OC`, the result was inactive.

Turning to `CC(C(=O)N1C(=O)N(C(=O)C(C)C(O)c2ccccc2)C(c2ccccc2)C1c1ccccc1)C(O)c1ccccc1` (configuration not stated), the EC50 was greater than 200 µM and the IC50 was found to be 28.2 µM.

Take `Cc1ccc(/C=N\NC2c3cc(Cl)ccc3Nc3nc(=O)[nH]c(C)c32)cc1` (configuration not stated): the EC50 is greater than 200 µM and the IC50 is 120 µM.

As to `CC(C)[C@](O)(C(=O)OCC1=CC[N+]2([O-])CC[C@@H](O)[C@@H]12)[C@H](C)O` (some centres not stated), the EC50 is greater than 398 µM and the IC50 is greater than 398 µM.

For `O=S1(=O)CCN2OCC1C2c1cccc2ccccc12` (configuration not stated), the result was inactive.

For `COc1ccc2c(c1OC)C13CCCC[C@H]1C(C2)[N+](C)(C)CC3` (some centres not stated), the EC50 is greater than 562 µM and the IC50 was greater than 562 µM.

With `CCN(/C=C1/C(=O)C(c2ccccc2)N(c2ccccc2)C1=O)CC` (configuration not stated), the EC50 was greater than 200 µM and the IC50 is greater than 200 µM.

In the case of `O=C(N/C(=C\c1ccccc1O)C1NC(Cc2c[nH]c3ccccc23)C(=O)O1)c1ccccc1` (configuration not stated), the EC50 was greater than 100 µM and the IC50 stood at 74.1 µM.

`COc1cc2c(c3c1c(=O)c1ccccc1n3C)C=CC1(CCCCC1)O2`: the EC50 was greater than 200 µM and the IC50 was 7.76 µM.

Take `COc1ccc(C2N(c3ccc(C)c(N=C=O)c3)C(=O)N3C(c4ccc(OC)cc4)N(c4ccc(C)c(N=C=O)c4)C(=O)N23)cc1` (configuration not stated): the EC50 was greater than 200 µM and the IC50 amounted to 12.6 µM.

Regarding `CC1=NNC(N)=N/C1=C\C(Sc1ccc(Cl)cc1)c1ccc(Cl)cc1Cl` (configuration not stated), the EC50 is greater than 112 µM and the IC50 turned out to be 18.6 µM.

For `[Cl][Cu+].[NH-]C(Cc1c[nH]cn1)C(=O)O` (configuration not stated), the EC50 is greater than 46.8 µM and the IC50 is 26.9 µM.

With `N/N=C1\c2ccccc2C2/C(=N\N)c3ccccc3C12` (configuration not stated), the outcome was inactive.

Regarding `N#CC12C3C4C5C3C1n1c(=O)n(-c3ccccc3)c(=O)n1C5C42` (configuration not stated), the EC50 was greater than 200 µM and the IC50 is greater than 200 µM.

In the case of `CCc1ccccc1C(C(=O)NC1CN2CCC1CC2)c1ccsc1` (configuration not stated), the EC50 is greater than 200 µM and the IC50 is 61.7 µM.

For `NC(=O)C(CSSCC(NC(=O)OCc1ccccc1)C(N)=O)NC(=O)OCc1ccccc1` (configuration not stated), the EC50 is greater than 200 µM and the IC50 was 18.2 µM.

On to `O=C1C[C@@H]2[C@@H](CCC23CCCC3)N1`, for which the outcome was inactive.

Regarding `OCC1(CO)CC2C3C=CC(C3)C2C1` (configuration not stated), the EC50 was greater than 229 µM and the IC50 is greater than 229 µM.

With `CC(C)(C)C(=O)CS(=O)(=O)O`, the EC50 was greater than 200 µM and the IC50 is greater than 200 µM.

As to `COc1cc(C2c3cc(O)c(OC)cc3C[C@H]3C(=O)OCC23)ccc1O` (some centres not stated), the EC50 was greater than 141 µM and the IC50 is greater than 141 µM.

In the case of `CCOC(=O)CCC(NC(=O)c1ccc(N=Cc2nc3cc(C(F)(F)F)ccc3nc2-c2ccccc2)cc1)C(=O)OCC` (configuration not stated), the EC50 is greater than 5.89 µM and the IC50 was greater than 5.89 µM.

`O=C(O)Cc1cc(=O)oc2cc(O)c(Cl)cc12`: the EC50 was greater than 708 µM and the IC50 was greater than 708 µM.

For the compound `N#C/C(=C\c1ccccc1)c1ccc(F)cc1`, the EC50 was greater than 200 µM and the IC50 was 53.7 µM.

Regarding `C/C(=N/NC(N)=S)C(CN(C)C)C(C1=C(O)c2ccccc2OC1)c1ccccc1` (configuration not stated), the EC50 was greater than 141 µM and the concentration for half-maximal inhibition (IC50) amounted to 107 µM.

On to `CCC12CCCN3CCC4(C(=Nc5cc(OC)ccc54)CC1)C32` (configuration not stated), for which the outcome was inactive.

With `CSc1nc2c(nc(N)n2C2OC(CO)C(O)C(O)C2O)c(=O)n1C` (configuration not stated), the result was inactive.

Consider `CC(C(=O)NCNC(=O)c1ccccc1)C(=O)NCc1ccccc1` (configuration not stated), for which the outcome was inactive.

For the compound `COc1ccc(/C=C2\CCc3cc(OC)c(OC)cc3C2=O)cc1`, the outcome was inactive.

Turning to `C/C(=N\Nc1ccccc1)c1sc(-c2nc(C)c(/C(C)=N/Nc3ccccc3)s2)nc1C`, the EC50 is greater than 15.5 µM and the IC50 was greater than 15.5 µM.

Take `O=c1[nH]c(=O)n(C2OC(CO)CC2F)cc1F` (configuration not stated): the EC50 is greater than 200 µM and the IC50 was greater than 200 µM.

Consider `COc1ccc(/C(Cl)=C(\C#N)c2ccc(OC)c(OC)c2)cc1OC`, for which the EC50 is greater than 200 µM and the IC50 worked out at 58.9 µM.

For the compound `CC1=NN(C(=O)c2ccc(Cl)cc2)C(=O)/C1=C/c1ccco1`, the EC50 was greater than 22.9 µM and the IC50 is greater than 22.9 µM.

Take `Nc1nc2c(ncn2C2COC(CO)O2)c(=O)[nH]1` (configuration not stated): the EC50 is 30.2 µM and the IC50 was greater than 200 µM.

For the compound `CC1=CC2OC3CC4OC(=O)/C=C/C=C/C(C(C)O)OCC(O)C(C)CC(=O)OCC2(CC1O)C4(C)C31CO1` (configuration not stated), the EC50 was greater than 0.2 µM and the IC50 was 0.0631 µM.

Regarding `COc1cc(/C=C/c2sc3ccccc3[n+]2C)ccc1N(C)C`, the EC50 was greater than 200 µM and the half-inhibitory concentration (IC50) stood at 3.24 µM.

Regarding `Cc1ccc(NC(=S)NNC(=O)c2cc(-c3ccccc3)nc3ccccc23)cc1`, the EC50 is greater than 200 µM and the IC50 was 12.9 µM.

As to `Cc1ccc(N(C(=O)Nc2ccc(F)c(Cl)c2)C2=NCC(C)S2)cc1` (configuration not stated), the EC50 is greater than 200 µM and the IC50 was 186 µM.

Turning to `CCCCCCCCCCCCCCCCCCOCC(COP(=O)([O-])OCC[N+](C)(C)C)OC` (configuration not stated), the EC50 is greater than 10.2 µM and the IC50 worked out at 2.45 µM.

Take `O=C1CCCCCCCCCC(=O)Nc2ccccc2-c2ccccc2N1`: the outcome was inactive.

For the compound `Oc1c2c(c(O)c3ccccc13)=N[C@@H](c1ccccc1)[C@H](c1ccccc1)N=2`, the result was inactive.

In the case of `C[C@H](c1ccccc1)N1C(=O)[C@@H](O)[C@H]1[C@H](CO)OCc1ccccc1`, the EC50 was greater than 200 µM and the half-maximal inhibitory concentration (IC50) was greater than 200 µM.

As for `CC(=O)O[C@H]1CC[C@H]2[C@@H]3CCC4=CC(=O)C=C[C@]4(O)[C@H]3CC[C@]12C`, the EC50 is greater than 200 µM and the IC50 was determined as 10.2 µM.

For `CC(C)(C)OC(=O)NC(Cc1ccccc1)C(=O)NC(Cc1ccccc1)C(=O)NCC(=O)OCc1ccccc1` (stereo not drawn) (Boc-Phe-Phe-Gly-OBn; configuration not given here), the EC50 was greater than 200 µM and the IC50 is 11.5 µM.

`O=[N+]([O-])c1ccccc1P1(=O)OCCO1`: the EC50 was greater than 200 µM and the IC50 was greater than 200 µM.

On to `COc1ccc(NC(=O)CSc2nnc(-c3ccc(NC(C)=O)cc3)o2)cc1`, for which the EC50 is greater than 33.9 µM and the IC50 is 19.1 µM.

On to `C1=CC(=NN=P(c2ccccc2)(c2ccccc2)c2ccccc2)C=C1`, for which the result was inactive.

In the case of `O=c1cc(-c2ccccc2)ss1`, the EC50 was greater than 200 µM and the IC50 came out at 105 µM.
